In data set [1] the test system is four bacterial suspensions (Escherichia coli, Salmonella, Staphylococcus aureus and Clostridium perfringens). It is filed as cell-based. As to conditions: trypsin 250U/mL, pH 8.0, 37° C., 30-180 min, TrSub at MIC, FIG. 5B.
The subject of data set [2] is Escherichia coli, Salmonella, Staphylococcus aureus and Clostridium perfringens. Format: cell-based. As to conditions: on Escherichia coli.
The test system of data set [3] is Four indicator bacteria (Escherichia coli, Salmonella, Staphylococcus aureus and Clostridium perfringens). It is filed as cell-based. As to conditions: FIG. 4.
The test system of data set [4] is Clostridium perfringens. Format: cell-based. The conditions noted are these: 16 hours at 37° C., 105 CFU/mL, minimum concentration making the hole clear.
The subject of data set [5] is salmonella. The data set can be described thus: Minimum bactericidal concentration (MBC). Format: cell-based. As to conditions: concentration inhibiting growth of 99.9% bacteria, 16h culture on solid medium.
Data set [6] concerns Clostridium perfringens. Format: cell-based. As to conditions: concentration inhibiting growth of 99.9% bacteria, 16h culture on solid medium.
For data set [7], the system named is colon bacillus (Escherichia coli). The conditions noted are these: concentration inhibiting growth of 99.9% bacteria, 16h culture on solid medium.
Data set [8] has as its system four bacterial suspensions (Escherichia coli, Salmonella, Staphylococcus aureus and Clostridium perfringens). Format: cell-based. The conditions noted are these: pepsin 3000 U/mL, pH 2.0, 37° C., 30-180 min, FIG. 5A.
Data set [9] deals with colon bacillus (Escherichia coli). It is filed as cell-based.
The subject of data set [10] is salmonella. Format: cell-based.

Regarding “TrSub (EFGAGKAQCAAAWLQCASGGTLGCGGGAVACQNYRQFQCRAA; the amino acid sequence of the recombinant antimicrobial peptide TrSub)”, the stability to trypsin result in [1] is “poor”. Moreover, the “inhibition rate of the two Gram-positive bacteria after trypsin treatment” value in data set [1] (Gram-positive bacteria) is on record as “about 80%”. For the same substance, in data set [2], the “antibacterial activity of the expression product” value is on record as “inhibitory effect”. Moreover, the “change in the inhibition rate of each bacterium after heat treatment” value in [3] (boiling water for 20 min) is listed as “almost no change”. Further, in data set [3] (boiling water, 25 min treatment), the “inhibition rate after heat treatment” value is “about 80%”. For the same substance, in the data set on Clostridium perfringens [4], the “MIC Gram-positive bacteria Clostridium perfringens” value was 25 µg/mL. Moreover, in the data set on salmonella [5], the “MBC Gram-negative bacteria salmonella” value came to 75 µg/mL. Moreover, the “MBC Gram-positive bacteria Clostridium perfringens” value in the data set on Clostridium perfringens [6] is 25 µg/mL. In [7], the “MBC Gram-negative bacteria colon bacillus” value came out at 37.5 µg/mL. The “inhibition rate to various bacteria after being treated by pepsin” value in [8] (TrSub at MIC) is “above 80%”. For the same substance, in data set [8], the stability to pepsin result is “good stability”. The “MIC Gram-negative bacteria colon bacillus” value in data set [9] is 37.5 µg/mL. Besides, the “MIC Gram-negative bacteria salmonella” value in the data set with salmonella [10] is reported as 37.5 µg/mL.
